In patent US10954232B2, “Pyrazole derivative as ALK5 inhibitor and uses thereof” (HANMI PHARMACEUTICAL CO., LTD., priority 2016, dated 2021):

biological target: T1, ALK5 kinase (Homo sapiens, UniProt P36897); test: Activity inhibition test on ALK5 enzyme (LanthaScreen Eu binding kinase assay); conditions: kinase tracer 178, 60 minutes at room temperature
T1 construct: GST; purchased Thermo Fisher Scientific Solutions
T1 sequence (P36897 34-503): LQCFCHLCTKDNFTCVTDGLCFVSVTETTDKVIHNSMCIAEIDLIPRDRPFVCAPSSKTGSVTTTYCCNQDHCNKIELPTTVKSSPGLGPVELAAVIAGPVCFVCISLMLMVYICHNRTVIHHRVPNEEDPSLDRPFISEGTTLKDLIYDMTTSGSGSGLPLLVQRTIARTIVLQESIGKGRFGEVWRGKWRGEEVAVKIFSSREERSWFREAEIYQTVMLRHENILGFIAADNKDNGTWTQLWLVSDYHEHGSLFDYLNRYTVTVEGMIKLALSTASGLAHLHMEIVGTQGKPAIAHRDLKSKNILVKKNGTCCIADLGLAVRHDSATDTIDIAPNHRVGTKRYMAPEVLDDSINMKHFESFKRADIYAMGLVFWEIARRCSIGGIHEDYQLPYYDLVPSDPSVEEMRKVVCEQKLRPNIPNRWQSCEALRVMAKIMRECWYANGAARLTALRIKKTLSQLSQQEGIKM
Description: For each of the compounds obtained in Examples 1 to 227, inhibitory activity against ALK5 kinase was measured.
For this, a LanthaScreen Eu binding kinase assay method was used, and ALK5 kinase, a kinase buffer, a kinase tracer 178, and a LanthaScreen Eu-GST binding antibody were all purchased from Thermo Fisher Scientific Solutions. Each of the compounds was made into a 10 mM DMSO solution, and diluted by 1/10 to a concentration of 1 μM to 0.0001 μM with an aqueous solution containing 4% DMSO. The test was performed in 384 well plates (well polystyrene low volume round-bottomed plates). First, 5 μL of the diluted compound solution was added, then 5 μL of the kinase/antibody mixture solution was introduced thereto, and 5 μL of the tracer was introduced thereto. Herein, these were added to each well so that the final kinase concentration became 5 nM, the final Eu-GST binding antibody concentration 2 nM, and the kinase tracer 178 concentration 10 nM, and the result was reacted in a stirrer for 60 minutes at room temperature. Then a fluorescence value was measured using a fluorescence meter (molecular device) ([…], 665 nm emission filter). Herein, as for the degree of compound activity to inhibit the kinase reaction, a phosphorylate rate was calculated from 0% to 100% with respect to a control group according to the protocol included in the kit, and a 50% inhibitory concentration (IC50) value was calculated by obtaining the x-axis concentration in the region where 50% activity was inhibited.

SMILES	IC50
Cc1cccc(-n2nc(C(=O)Nc3ccc(F)cc3)cc2-c2ccc3ncsc3c2)n1 [Example 29, 5-(benzo[d]thiazol-6-yl)-N-(4-fluorophenyl)-1-(6-methylpyridin-2-yl)-1H-pyrazole-3-carboxyamide]	3.9 nM
Cc1cccc(-n2nc(C(=O)Nc3ccc(F)c(F)c3)cc2-c2ccc3ncsc3c2)n1 [Example 30, 5-(benzo[d]thiazol-6-yl)-N-(3,4-difluorophenyl)-1-(6-methylpyridin-2-yl)-1H-pyrazole-3-carboxyamide]	5.8 nM
Cc1cccc(-n2nc(C(=O)Nc3ccccc3Cl)cc2-c2ccc3ncsc3c2)n1 [Example 31, 5-(benzo[d]thiazol-6-yl)-N-(2-chlorophenyl)-1-(6-methylpyridin-2-yl)-1H-pyrazole-3-carboxyamide]	> 100 nM
Cc1cccc(-n2nc(C(=O)Nc3cccc(Cl)c3)cc2-c2ccc3ncsc3c2)n1 [Example 32, 5-(benzo[d]thiazol-6-yl)-N-(3-chlorophenyl)-1-(6-methylpyridin-2-yl)-1H-pyrazole-3-carboxyamide]	10 to 100 nM
Cc1cccc(-n2nc(C(=O)Nc3ccc(Cl)cc3)cc2-c2ccc3ncsc3c2)n1 [Example 33, 5-(benzo[d]thiazol-6-yl)-N-(4-chlorophenyl)-1-(6-methylpyridin-2-yl)-1H-pyrazole-3-carboxyamide]	10 to 100 nM
Cc1cccc(-n2nc(C(=O)Nc3ccc(Br)cc3)cc2-c2ccc3ncsc3c2)n1 [Example 34, 5-(benzo[d]thiazol-6-yl)-N-(4-bromophenyl)-1-(6-methylpyridin-2-yl)-1H-pyrazole-3-carboxyamide]	10 to 100 nM
CSc1cccc(NC(=O)c2cc(-c3ccc4ncsc4c3)n(-c3cccc(C)n3)n2)c1 [Example 35, 5-(benzo[d]thiazol-6-yl)-1-(6-methylpyridin-2-yl)-N-(3-(methylthio)phenyl)-1H-pyrazole-3-carboxyamide]	10 to 100 nM
CSc1ccc(NC(=O)c2cc(-c3ccc4ncsc4c3)n(-c3cccc(C)n3)n2)cc1 [Example 36, 5-(benzo[d]thiazol-6-yl)-1-(6-methylpyridin-2-yl)-N-(4-(methylthio)phenyl)-1H-pyrazole-3-carboxyamide]	< 10 nM
Cc1cccc(-n2nc(C(=O)Nc3ccc(SC4CC4)cc3)cc2-c2ccc3ncsc3c2)n1 [Example 37, 5-(benzo[d]thiazol-6-yl)-N-(4-(cyclopropylthio)phenyl)-1-(6-methylpyridin-2-yl)-1H-pyrazole-3-carboxyamide]	40 nM
Cc1cccc(-n2nc(C(=O)Nc3cccc([S+](C)[O-])c3)cc2-c2ccc3ncsc3c2)n1 (centres unmarked) [Example 38, 5-(benzo[d]thiazol-6-yl)-1-(6-methylpyridin-2-yl)-N-(3-(methylsulfinyl)phenyl)-1H-pyrazole-3-carboxyamide]	1.8 nM
Cc1cccc(-n2nc(C(=O)Nc3ccc([S+](C)[O-])cc3)cc2-c2ccc3ncsc3c2)n1 (centres unmarked) [Example 39, 5-(benzo[d]thiazol-6-yl)-1-(6-methylpyridin-2-yl)-N-(4-(methylsulfinyl)phenyl)-1H-pyrazole-3-carboxyamide]	2.4 nM
Cc1cccc(-n2nc(C(=O)Nc3cccc(S(C)(=O)=O)c3)cc2-c2ccc3ncsc3c2)n1 [Example 40, 5-(benzo[d]thiazol-6-yl)-1-(6-methylpyridin-2-yl)-N-(3-(methylsulfonyl)phenyl)-1H-pyrazole-3-carboxyamide]	3.3 nM
Cc1cccc(-n2nc(C(=O)Nc3ccc(S(C)(=O)=O)cc3)cc2-c2ccc3ncsc3c2)n1 [Example 41, 5-(benzo[d]thiazol-6-yl)-1-(6-methylpyridin-2-yl)-N-(4-(methylsulfonyl)phenyl)-1H-pyrazole-3-carboxyamide]	5.2 nM
CCCS(=O)(=O)c1ccc(NC(=O)c2cc(-c3ccc4ncsc4c3)n(-c3cccc(C)n3)n2)cc1 [Example 42, 5-(benzo[d]thiazol-6-yl)-1-(6-methylpyridin-2-yl)-N-(4-(propylsulfonyl)phenyl)-1H-pyrazole-3-carboxyamide]	2.2 nM
Cc1cccc(-n2nc(C(=O)Nc3ccc(S(=O)(=O)C4CC4)cc3)cc2-c2ccc3ncsc3c2)n1 [Example 43, 5-(benzo[d]thiazol-6-yl)-N-(4-(cyclopropylsulfonyl)phenyl)-1-(6-methylpyridin-2-yl)-1H-pyrazole-3-carboxyamide]	4.4 nM
Cc1cccc(-n2nc(C(=O)Nc3ccc(S(C)(=O)=O)cc3F)cc2-c2ccc3ncsc3c2)n1 [Example 44, 5-(benzo[d]thiazol-6-yl)-N-(2-fluoro-4-(methylsulfonyl)phenyl)-1-(6-methylpyridin-2-yl)-1H-pyrazole-3-carboxyamide]	13 nM
Cc1cccc(-n2nc(C(=O)Nc3cccc(S(N)(=O)=O)c3)cc2-c2ccc3ncsc3c2)n1 [Example 45, 5-(benzo[d]thiazol-6-yl)-1-(6-methylpyridin-2-yl)-N-(3-sulfamoylphenyl)-1H-pyrazole-3-carboxyamide]	2.4 nM
Cc1cccc(-n2nc(C(=O)Nc3ccc(S(N)(=O)=O)cc3)cc2-c2ccc3ncsc3c2)n1 [Example 46]	1.3 nM
CNS(=O)(=O)c1cccc(NC(=O)c2cc(-c3ccc4ncsc4c3)n(-c3cccc(C)n3)n2)c1 [Example 47, 5-(benzo[d]thiazol-6-yl)-1-(6-methylpyridin-2-yl)-N-(3-(N-methylsulfamoyl)phenyl)-1H-pyrazole-3-carboxyamide]	1.2 nM
CNS(=O)(=O)c1ccc(NC(=O)c2cc(-c3ccc4ncsc4c3)n(-c3cccc(C)n3)n2)cc1 [Example 48, 5-(benzo[d]thiazol-6-yl)-1-(6-methylpyridin-2-yl)-N-(4-(N-methylsulfamoyl)phenyl)-1H-pyrazole-3-carboxyamide]	4.1 nM
Cc1cccc(-n2nc(C(=O)Nc3cccc(S(=O)(=O)NC4CC4)c3)cc2-c2ccc3ncsc3c2)n1 [Example 49, 5-(benzo[d]thiazol-6-yl)-N-(3-(N-cyclopropylsulfamoyl)phenyl)-1-(6-methylpyridin-2-yl)-1H-pyrazole-3-carboxyamide]	5.6 nM
Cc1cccc(-n2nc(C(=O)Nc3ccc(S(=O)(=O)NC4CC4)cc3)cc2-c2ccc3ncsc3c2)n1 [Example 50, 5-(benzo[d]thiazol-6-yl)-N-(4-(N-cyclopropylsulfamoyl)phenyl)-1-(6-methylpyridin-2-yl)-1H-pyrazole-3-carboxyamide]	6.6 nM
Cc1cccc(-n2nc(C(=O)Nc3cccc(S(=O)(=O)N(C)C)c3)cc2-c2ccc3ncsc3c2)n1 [Example 51, 5-(benzo[d]thiazol-6-yl)-N-(3-(N,N-dimethylsulfamoyl)phenyl)-1-(6-methylpyridin-2-yl)-1H-pyrazole-3-carboxyamide]	6.5 nM
Cc1cccc(-n2nc(C(=O)Nc3ccc(S(=O)(=O)N(C)C)cc3)cc2-c2ccc3ncsc3c2)n1 [Example 52, 5-(benzo[d]thiazol-6-yl)-N-(4-(N,N-dimethylsulfamoyl)phenyl)-1-(6-methylpyridin-2-yl)-1H-pyrazole-3-carboxyamide]	2.5 nM
Cc1cccc(-n2nc(C(=O)Nc3cccc(NS(C)(=O)=O)c3)cc2-c2ccc3ncsc3c2)n1 [Example 53, 5-(benzo[d]thiazol-6-yl)-1-(6-methylpyridin-2-yl)-N-(3-(methylsulfonamido)phenyl)-1H-pyrazole-3-carboxyamide]	2.4 nM
Cc1cccc(-n2nc(C(=O)Nc3cccc(NS(=O)(=O)C4CC4)c3)cc2-c2ccc3ncsc3c2)n1 [Example 54, 5-(benzo[d]thiazol-6-yl)-N-(3-(cyclopropanesulfonamido)phenyl)-1-(6-methylpyridin-2-yl)-1H-pyrazole-3-carboxyamide]	2 nM
Cc1cccc(-n2nc(C(=O)Nc3ccc(NS(=O)(=O)C4CC4)cc3)cc2-c2ccc3ncsc3c2)n1 [Example 55, 5-(benzo[d]thiazol-6-yl)-N-(4-(cyclopropanesulfonamido)phenyl)-1-(6-methylpyridin-2-yl)-1H-pyrazole-3-carboxyamide]	4.2 nM
Cc1cccc(-n2nc(C(=O)Nc3ccc(S(=O)(=O)O)cc3)cc2-c2ccc3ncsc3c2)n1 [Example 56, 4-(5-(benzo[d]thiazol-6-yl)-1-(6-methylpyridin-2-yl)-1H-pyrazole-3-carboxyamido)benzenesulfonic acid]	2.4 nM
Cc1cccc(-n2nc(C(=O)Nc3ccc(S(=O)(=O)C(F)(F)F)cc3)cc2-c2ccc3ncsc3c2)n1 [Example 57, 5-(benzo[d]thiazol-6-yl)-1-(6-methylpyridin-2-yl)-N-(4-((trifluoromethyl)sulfonyl)phenyl)-1H-pyrazole-3-carboxyamide]	45 nM
